From publication PMC2504886 (The Journal of Biological Chemistry, 2008)

Biological target: T1, T. maritima CopA (WT CopA) (Thermotoga maritima, UniProt Q9WYF3)
T1 sequence (Q9WYF3 1-726): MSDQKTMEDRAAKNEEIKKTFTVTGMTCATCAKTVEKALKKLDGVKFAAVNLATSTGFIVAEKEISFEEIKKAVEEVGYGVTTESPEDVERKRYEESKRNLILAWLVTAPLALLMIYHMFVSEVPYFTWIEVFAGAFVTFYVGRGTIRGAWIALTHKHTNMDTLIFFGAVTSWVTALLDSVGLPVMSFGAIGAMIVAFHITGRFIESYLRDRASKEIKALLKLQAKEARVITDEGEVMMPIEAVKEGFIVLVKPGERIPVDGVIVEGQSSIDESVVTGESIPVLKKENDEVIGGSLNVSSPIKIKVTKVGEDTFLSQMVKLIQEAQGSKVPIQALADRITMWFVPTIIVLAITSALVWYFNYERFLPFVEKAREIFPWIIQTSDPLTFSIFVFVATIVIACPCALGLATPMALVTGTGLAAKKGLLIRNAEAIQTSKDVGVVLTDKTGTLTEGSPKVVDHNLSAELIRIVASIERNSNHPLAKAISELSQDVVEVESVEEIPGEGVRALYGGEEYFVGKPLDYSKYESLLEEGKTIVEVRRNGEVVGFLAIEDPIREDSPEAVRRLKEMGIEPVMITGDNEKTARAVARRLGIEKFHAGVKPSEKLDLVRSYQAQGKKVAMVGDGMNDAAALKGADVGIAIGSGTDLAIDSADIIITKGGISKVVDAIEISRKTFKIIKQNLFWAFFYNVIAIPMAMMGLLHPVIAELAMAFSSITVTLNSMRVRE
Experiment: phosphoenzyme
Type: binding

Kd: 3.3 µM
Structure (SMILES): O=P(O)(O)O [Pi]
